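Grown in 96-well plates, cells were treated for 48 hours with each compound at five concentrations. Insufficient inhibition: endpoint recorded as highest concentration tested. Definition used: TGI = concentration required for complete inhibition of growth.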
What was measured:
Assay in all cases: NCI-60 cell line screen, 48 h
PC-3 prostate = tested on: PC-3 prostate
COLO 205 colon = tested on: COLO 205 colon
U251 CNS = tested on: U251 CNS
HT29 colon = tested on: HT29 colon
UACC-257 melanoma = tested on: UACC-257 melanoma
SK-OV-3 ovarian = tested on: SK-OV-3 ovarian
EKVX NSCLC = tested on: EKVX NSCLC
MOLT-4 leukemia = tested on: MOLT-4 leukemia
NCI-H522 lung = tested on: NCI-H522 lung
A549 NSCLC = tested on: A549 NSCLC
SK-MEL-28 melanoma = tested on: SK-MEL-28 melanoma
MALME-3M melanoma = tested on: MALME-3M melanoma
OVCAR-8 ovarian = tested on: OVCAR-8 ovarian
786-0 renal = tested on: 786-0 renal
NCI-H226 lung = tested on: NCI-H226 lung
LOX IMVI melanoma = tested on: LOX IMVI melanoma
MDA-MB-231 breast = tested on: MDA-MB-231 breast
SNB-19 CNS = tested on: SNB-19 CNS
CCRF-CEM leukemia = tested on: CCRF-CEM leukemia
NCI-H23 lung = tested on: NCI-H23 lung
HOP-62 NSCLC = tested on: HOP-62 NSCLC
CAKI-1 renal = tested on: CAKI-1 renal
A498 renal = tested on: A498 renal
OVCAR-3 ovarian = tested on: OVCAR-3 ovarian
ACHN renal = tested on: ACHN renal
DU-145 prostate = tested on: DU-145 prostate
T-47D breast = tested on: T-47D breast
RXF 393 renal = tested on: RXF 393 renal
HOP-92 NSCLC = tested on: HOP-92 NSCLC
UACC-62 melanoma = tested on: UACC-62 melanoma
KM12 colon = tested on: KM12 colon
M14 melanoma = tested on: M14 melanoma
K-562 leukemia = tested on: K-562 leukemia
SF-295 CNS = tested on: SF-295 CNS
MDA-MB-435 = tested on: MDA-MB-435
MCF7 breast = tested on: MCF7 breast
OVCAR-4 ovarian = tested on: OVCAR-4 ovarian
HS 578T breast = tested on: HS 578T breast
SF-268 CNS = tested on: SF-268 CNS
SW-620 colon = tested on: SW-620 colon
SK-MEL-2 melanoma = tested on: SK-MEL-2 melanoma
SNB-75 CNS = tested on: SNB-75 CNS
UO-31 renal = tested on: UO-31 renal
BT-549 breast = tested on: BT-549 breast
NCI/ADR-RES ovarian = tested on: NCI/ADR-RES ovarian
RPMI-8226 leukemia = tested on: RPMI-8226 leukemia
OVCAR-5 ovarian = tested on: OVCAR-5 ovarian
SN12C renal = tested on: SN12C renal
SK-MEL-5 melanoma = tested on: SK-MEL-5 melanoma
TK-10 renal = tested on: TK-10 renal
SR leukemia = tested on: SR leukemia
HCT-15 colon = tested on: HCT-15 colon
HL-60(TB) leukemia = tested on: HL-60(TB) leukemia
SF-539 CNS = tested on: SF-539 CNS
MDA-N = tested on: MDA-N
HCT-116 colon = tested on: HCT-116 colon

Brc1ccc2c3c1[C@@H]1O[C@@H]1c1cccc(c1-3)[C@@H]1O[C@H]21
TGI (PC-3 prostate): > 71.7 µM | TGI (COLO 205 colon): 52.2 µM | TGI (U251 CNS): 40.2 µM | TGI (HT29 colon): 53.3 µM | TGI (UACC-257 melanoma): 98.4 µM | TGI (SK-OV-3 ovarian): > 71.2 µM | TGI (EKVX NSCLC): 39.4 µM | TGI (MOLT-4 leukemia): > 100 µM | TGI (NCI-H522 lung): 31.4 µM | TGI (A549 NSCLC): > 92.1 µM | TGI (SK-MEL-28 melanoma): 50.3 µM | TGI (MALME-3M melanoma): 41.6 µM | TGI (OVCAR-8 ovarian): 30.8 µM | TGI (786-0 renal): 51.1 µM | TGI (NCI-H226 lung): > 100 µM | TGI (LOX IMVI melanoma): 6.86 µM | TGI (MDA-MB-231 breast): 65.8 µM | TGI (SNB-19 CNS): 60.9 µM | TGI (CCRF-CEM leukemia): > 100 µM | TGI (NCI-H23 lung): 33.7 µM | TGI (HOP-62 NSCLC): 43.1 µM | TGI (CAKI-1 renal): 26.4 µM | TGI (A498 renal): > 69.1 µM | TGI (OVCAR-3 ovarian): 52.6 µM | TGI (ACHN renal): 67.1 µM | TGI (DU-145 prostate): > 72.5 µM | TGI (T-47D breast): 45 µM | TGI (RXF 393 renal): 32.3 µM | TGI (HOP-92 NSCLC): 43.5 µM | TGI (UACC-62 melanoma): 35.4 µM | TGI (KM12 colon): 36 µM | TGI (M14 melanoma): 35.5 µM | TGI (K-562 leukemia): > 100 µM | TGI (SF-295 CNS): 46 µM | TGI (MDA-MB-435): 48.3 µM | TGI (MCF7 breast): > 100 µM | TGI (OVCAR-4 ovarian): 41.3 µM | TGI (HS 578T breast): 80.8 µM | TGI (SF-268 CNS): 63.1 µM | TGI (SW-620 colon): 46.9 µM | TGI (SK-MEL-2 melanoma): > 71.5 µM | TGI (SNB-75 CNS): 45.2 µM | TGI (UO-31 renal): 43.8 µM | TGI (BT-549 breast): 43.2 µM | TGI (NCI/ADR-RES ovarian): 45.4 µM | TGI (RPMI-8226 leukemia): > 100 µM | TGI (OVCAR-5 ovarian): 34.3 µM | TGI (SN12C renal): 45.9 µM | TGI (SK-MEL-5 melanoma): 33.4 µM | TGI (TK-10 renal): > 100 µM | TGI (SR leukemia): > 100 µM | TGI (HCT-15 colon): 49.8 µM | TGI (HL-60(TB) leukemia): 66.5 µM | TGI (SF-539 CNS): 16.5 µM | TGI (MDA-N): 53.5 µM | TGI (HCT-116 colon): 45.7 µM

Source: PubChem BioAssay (NCI)
